Where two headings read alike, the source gives them in different places.
Legend:
[1] = Protocol: The purpose of this study was to determine the stability of Ag5IO6 at various temperatures independent of hydrolytic or photolytic effects, in order to obtain an understanding of its storage stability, and also to perform differential scanning calorimetry and thermal gravimetry.
• i. Ag5IO6 was made fresh, a sample was submitted for XRD analysis (Day 0), and then additional samples were placed at room temperature, 40° C., 54° C., and 90° C. for 14 and 28 days in amber glass vials placed in CO2 impermeable foil pouches with desiccant packs. After the allotted time period, the samples were submitted for XRD. • Samples were submitted for DSC/TGA to measure thermal stability.

[2] = room temperature
Protocol: The purpose of this study was to determine whether or not Ag5IO6 interacts with methanol, tetrahydrofuran, acetone, and acetonitrile.
• i. […] of Ag5IO6 was placed in a vial, 2 mL of the solvent was added, and the vial was placed in a TAM III for an isothermal run at room temperature for >24 h with solvent only as the reference. The heat flow was measured. • ii. After the run was complete, the solvents were allowed to flash off and the solids collected were submitted to XRD. • iii. Samples exposed following essentially the same method for only 18 h were also submitted for XRD.

[3] = remark: listed apart in the source
Protocol: The purpose of this study was to develop a basic understanding of the solubility (and stability) of Ag5IO6 in pure water and 0.9% (physiological saline), following OECD Method (105)—flask.
• 1. About 0.1 g Ag5IO6 was weighed into 6 100 mL volumetric flasks. • 2. The flasks were filled to volume with ddH2O or 0.9% saline. • 3. The vessels were tightly stoppered and then agitated using a shaker in an incubator at 30° C. for approximately 24 hours. • 4. After 24 hours, two of the vessels (one per solvent) were equilibrated for 24 h at the test temperature (20° C., using a water bath) with occasional shaking. • 5. Pictures were obtained of the solutions and solid present. • 6. The contents of the vessels were then centrifuged at the test temperature (20° C.). • 7. The concentration of the test substance in the clear aqueous phase was determined by atomic absorption spectroscopy. • 8. The pH of the solution was measured using a pH meter. • 9. Triplicate samples of the solution were analyzed by UV-Vis spectroscopy. • 10. A sample of the solid material was collected by vacuum filtration, allowed to dry on the filter for 15 minutes, then transferred to a watch glass and placed in the fume hood to dry overnight. The sample was then packaged in a glass vial covered in aluminum foil and submitted for XRD analysis. • 11. The procedures of steps 4-10 were repeated for the second and third flask, after an initial equilibration at 30° C. for two and three days, respectively. Results

[4] = greater than 1.3 million lux hours exposure
Description: The purpose of this study was to assess the photostability of Ag5IO6 in accordance with the FDA's 1997 recommendations regarding the photostability testing of new products.
The samples were then submitted for XRD.

## [Ag+].[Ag+].[Ag+].[Ag+].[Ag+].[O-][I+]([O-])([O-])([O-])([O-])[O-] [Ag5IO6, pentasilver hexaoxoiodate]
[1]; 90° C., 14 and 28 days
  composition after storage (XRD): 100 % Ag5IO6
[1]; 90° C., Day 14
  grain size: 62 Å
[1]; 90° C., Day 28
  grain size: 94 Å
[1]; Day 0
  grain size: 14 Å
[1]; powder
  temperature up to which stable: > 400 °C
[1]; powder, 90° C.
  time stable at 90° C.: > 28 days
[1]; powder, listed as Ag5IO6 powder
  temperature up to which stable: up to 440 °C
[1]; suggested by stability at 54° C. for 28 days
  shelf life at room temperature: > 2 years
[2]; THF
  onset of significant reaction: ~56 h
[2]; acetonitrile (slower onset)
  onset of significant reaction: ~56 h
[2]; all solvents (methanol, tetrahydrofuran, acetone, acetonitrile)
  time blended with solvents without substantial reaction: < 18 h
[2]; methanol
  onset of significant reaction: ~33 h
[3]; 0.9% saline, 20° C., calculated assuming that all Ag in solution is due to Ag5IO6
  solubility in saline: 0.61 ± 0.05 µg/mL
[3]; ddH2O, 20° C., calculated assuming that all Ag in solution is due to Ag5IO6
  solubility in ddH2O: 24.41 ± 0.87 µg/mL
[3]; in ddH2O
  solid material converted to Ag metal (XRD): 0.1%
  solid material remained as Ag5IO6 (XRD): approximately 99.9%
[3]; in saline, solid collected at the end of the experiment
  solid material converted to AgCl (XRD): approximately 25%
[3]; solution over Ag5IO6 in 0.9% saline
  pH in saline: 10
[3]; solution over Ag5IO6 in ddH2O
  pH in ddH2O: 8
[4]
  composition after light exposure (XRD): 100 % Ag5IO6
